Results on 29 compounds are retold here after US11479539B2, “Small molecule modulators of the BTB domain of Keap1” (MedImmune Limited, priority 2017, dated 2022).

As usually defined, the EC50 is the concentration giving half of the maximal effect.

Keap1, sequence (Q14145 whole entry): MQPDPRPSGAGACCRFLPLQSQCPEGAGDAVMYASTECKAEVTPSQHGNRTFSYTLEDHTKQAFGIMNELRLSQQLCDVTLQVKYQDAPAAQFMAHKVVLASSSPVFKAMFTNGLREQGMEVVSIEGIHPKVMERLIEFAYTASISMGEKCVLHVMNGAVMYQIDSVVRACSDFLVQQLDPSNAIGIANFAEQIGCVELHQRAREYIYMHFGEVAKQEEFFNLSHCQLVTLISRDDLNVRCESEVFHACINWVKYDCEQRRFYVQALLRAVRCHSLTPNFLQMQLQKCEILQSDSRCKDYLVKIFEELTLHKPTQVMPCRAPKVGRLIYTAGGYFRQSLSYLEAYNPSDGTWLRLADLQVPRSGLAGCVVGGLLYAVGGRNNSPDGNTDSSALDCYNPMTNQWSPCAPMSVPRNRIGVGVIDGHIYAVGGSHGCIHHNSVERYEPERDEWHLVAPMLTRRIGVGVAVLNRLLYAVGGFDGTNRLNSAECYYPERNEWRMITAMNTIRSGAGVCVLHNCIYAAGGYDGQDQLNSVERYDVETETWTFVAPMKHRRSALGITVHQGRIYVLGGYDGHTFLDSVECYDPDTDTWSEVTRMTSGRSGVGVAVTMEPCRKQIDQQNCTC

This experiment has as its target Keap1 (Homo sapiens (Human), UniProt Q14145). The experiment can be described thus: HEK293 ARE luciferase assay. The format is cell-based. The following applies: HEK-293 ARE firefly luciferase transiently transfected cells; 18 h incubation; mean of 1 to 20 individual measurements. From the text: The purpose of this assay is to identify small molecule inhibitors of Keap1, preventing Keap1 binding to Nrf2, and thus activating the Nrf2 signalling pathway in HEK-293 ARE firefly luciferase transiently transfected cells. HEK-293 cells express wild-type Keap1 protein and therefore have low constitutive levels of Nrf2 protein and Nrf2-dependent transcription. […] When Keap1 is inhibited, Nrf2 signalling is activated, and there is an increase in luciferase expression and light emission.
Cryopreserved HEK ARE luciferase cells were rapidly thawed in a 37° C. water bath and resuspended in assay culture medium (DMEM, 10% FCS, 2 mM L-glutamine). The cell suspension was pelleted by centrifugation ([…]; 300 g) using a Heraeus benchtop centrifuge. Supernatant was removed and the pellet was gently resuspended in 5 mL culture medium per vial. Cell viability and cell number was measured using an Invitrogen Countess automated cell counter (typical viability 80%), and cells were diluted to a density of 5.0×10^5 cells/mL.
Cells were then plated out into white 384-well plates (Greiner 781080) using a Multidrop Combi, 20 μL/well, to give 10,000 cells/well. As appropriate, test compounds had been added to wells prior to dispensing cells using an Echo 555 acoustic dispenser (Labcyte). Plates were left at room temperature for ˜10 min to promote even cell settling across the plate before incubation for 18 h at 37° C., 95% humidity and 5% CO2.
After 18 h incubation, plates were removed from the incubator and allowed to cool to room temperature for 30 min, before 10 μL per well SteadyGlo reagent detection reagent was added (as per manufacturer's instructions, 10 min before required 10 mL room temperature buffer was added to one vial of lyophilised substrate and inverted several times to fully dissolve). Plates were then incubated in the dark for 30 min before reading on an Envision plate reader.
Compounds were acoustically dispensed using a Labcyte Echo, using a 10 pt dose curve with a top concentration of 100 μM. Assay wells were backfilled with DMSO to a total of 60 nL to maintain 0.3% (v/v) DMSO through the assay.
The Stimulator signal was defined using 30 μM tert-butyl hydroquinone (tBHQ) and the Neutral signal by DMSO vehicle control. All calculations were performed using GeneData.
In IBIS Column Calculations, Assay Type was set to ‘Stimulator’, and the Activity Threshold was set to 50.
The mean values were calculated from anywhere from 1 to 20 individual measurements.
In turn, `COC1(c2ncccc2C(F)F)C=C(C#N)C(=O)C(C)(C)C1` (single isomer, unassigned) [Compound 5, 3-(3-(difluoromethyl)pyridin-2-yl)-3-methoxy-5,5-dimethyl-6-oxocyclohex-1-enecarbonitrile] displayed a concentration for a half-maximal effect (EC50) of 10 nM.
The figure for `[2H]C([2H])([2H])OC1(c2cccc(-c3cnn(C)c3)n2)C=C(C#N)C(=O)C(C)(C)C1` (single isomer, unassigned) [Compound 14, 5,5-Dimethyl-3-[6-(1-methylpyrazol-4-yl)-2-pyridyl]-6-oxo-3-(trideuterio-methoxy)cyclohexene-1-carbonitrile] is 12 nM.
In the case of `COC1(c2ncccc2C(F)(F)F)C=C(C#N)C(=O)C(C)(C)C1` (single isomer, unassigned) [Compound 15, 3-methoxy-5,5-dimethyl-6-oxo-3-(3-(trifluoromethyl)pyridin-2-yl)cyclohex-1-enecarbonitrile], the 50% effective concentration (EC50) was 24 nM.
For the compound `COC1(c2ncccc2-c2cnn(C)c2)C=C(C#N)C(=O)C(C)(C)C1` (single isomer, unassigned) [Compound 23, 3-methoxy-5,5-dimethyl-3-(3-(1-methyl-1H-pyrazol-4-yl)pyridin-2-yl)-6-oxocyclohex-1-enecarbonitrile], the 50% effective concentration (EC50) came to 56 nM.
For the compound `COC1(c2ncc(F)cc2C(F)(F)F)C=C(C#N)C(=O)C(C)(C)C1` (single isomer, unassigned) [Compound 26, 3-(5-fluoro-3-(trifluoromethyl)py-ridin-2-yl)-3-methoxy-5,5-dimethyl-6-oxocyclohex-1-enecarbonitrile], a half-maximal response (EC50) required 24 nM.
For the compound `COC1(c2ccc(F)cn2)C=C(C#N)C(=O)C(C)(C)C1` (single isomer, unassigned) [Compound 27, 3-(5-fluoropyridin-2-yl)-3-methoxy-5,5-dimethyl-6-oxocyclohex-1-enecarbonitrile], the concentration for a half-maximal effect (EC50) stood at 180 nM.
`COC1(c2ncc(F)cc2C)C=C(C#N)C(=O)C(C)(C)C1` (single isomer, unassigned) [Compound 31, 3-(5-fluoro-3-methylpyridin-2-yl)-3-methoxy-5,5-dimethyl-6-oxocyclohex-1-enecarbonitrile]: a half-maximal response (EC50) required 19 nM.
`COC1(c2ccc(Cl)cn2)C=C(C#N)C(=O)C(C)(C)C1` (single isomer, unassigned) [Compound 32, 3-(5-chloropyridin-2-yl)-3-methoxy-5,5-dimethyl-6-oxocyclohex-1-enecarbonitrile] gave an EC50 of 55 nM.
The figure for `COC1(c2nc(C(F)(F)F)cs2)C=C(C#N)C(=O)C(C)(C)C1` (single isomer, unassigned) [Compound 33, 3-methoxy-5,5-dimethyl-6-oxo-3-(4-(tri-fluoromethyl)thia-zol-2-yl)cyclohex-1-enecarbonitrile] is 383 nM.
The figure for `COC1(c2sccc2C)C=C(C#N)C(=O)C(C)(C)C1` (single isomer, unassigned) [Compound 34, 3-methoxy-5,5-dimethyl-3-(3-methylthiophen-2-yl)-6-oxocyclohex-1-enecarbonitrile] is 12 nM.
In turn, `CCOC1(c2ncccc2C(F)(F)F)C=C(C#N)C(=O)C(C)(C)C1` (single isomer, unassigned) [Compound 35, 3-ethoxy-5,5-dimethyl-6-oxo-3-(3-(trifluoromethyl)py-ridin-2-yl)cyclohex-1-enecarbonitrile] showed a 50% effective concentration (EC50) of 39 nM.
The result for `COC1(c2nc(C)cs2)C=C(C#N)C(=O)C(C)(C)C1` (single isomer, unassigned) [Compound 36, 3-methoxy-5,5-dimethyl-3-(4-methylthiazol-2-yl)-6-oxocyclohex-1-enecarbonitrile] reads 96 nM.
Compound `CCOC1(c2ccc(F)cn2)C=C(C#N)C(=O)C(C)(C)C1` (single isomer, unassigned) [Compound 37, 3-ethoxy-3-(5-fluoropyridin-2-yl)-5,5-dimethyl-6-oxocyclohex-1-enecarbonitrile] came in with a half-maximal effective concentration (EC50) of 86 nM.
With `COC1(c2nccs2)C=C(C#N)C(=O)C(C)(C)C1` (single isomer, unassigned) [Compound 39, 3-methoxy-5,5-dimethyl-6-oxo-3-(thiazol-2-yl)cyclohex-1-enecarbonitrile], the EC50 is 125 nM.
The result for `COC1(c2ncccc2OC(F)(F)F)C=C(C#N)C(=O)C(C)(C)C1` (single isomer, unassigned) [Compound 41, 3-methoxy-5,5-dimethyl-6-oxo-3-(3-(trifluoromethoxy)py-ridin-2-yl)cyclohex-1-enecarbonitrile] reads 11 nM; that for `COC1(c2scnc2C)C=C(C#N)C(=O)C(C)(C)C1` (single isomer, unassigned) [Compound 43, 3-methoxy-5,5-dimethyl-3-(4-methylthiazol-5-yl)-6-oxocyclohex-1-enecarbonitrile], 129 nM.
On to `COC1(c2ncc(F)cc2F)C=C(C#N)C(=O)C(C)(C)C1` (single isomer, unassigned) [Compound 44, 3-(3,5-difluoropyridin-2-yl)-3-methoxy-5,5-dimethyl-6-oxocyclohex-1-enecarbonitrile], for which the response was half-maximal at 37 nM (EC50).
`COC1(c2ncc(Cl)cc2C(F)F)C=C(C#N)C(=O)C(C)(C)C1` (single isomer, unassigned) [Compound 45, 3-(5-chloro-3-(difluoromethyl)py-ridin-2-yl)-3-methoxy-5,5-dimethyl-6-oxocyclohex-1-enecarbonitrile] had an EC50 of 28 nM.
`COC1(c2ncc(F)cc2OC(F)F)C=C(C#N)C(=O)C(C)(C)C1` (single isomer, unassigned) [Compound 47, 3-(3-(difluoromethoxy)-5-fluoropyridin-2-yl)-3-methoxy-5,5-dimethyl-6-oxocyclohex-1-enecarbonitrile] displayed a concentration for a half-maximal effect (EC50) of 8 nM.
On to `COC1(c2ncc(F)cc2Br)C=C(C#N)C(=O)C(C)(C)C1` (single isomer, unassigned) [Compound 48, 3-(3-bromo-5-fluoropyridin-2-yl)-3-methoxy-5,5-dimethyl-6-oxocyclohex-1-enecarbonitrile], for which a half-maximal effect (EC50) was put at 6 nM.
With `COC1(c2cccc(-c3cnn(C)c3)n2)C=C(C#N)C(=O)C2(CC2)C1` (single isomer, unassigned) [Compound 49, 7-methoxy-7-(6-(1-methyl-1H-pyrazol-4-yl)pyridin-2-yl)-4-oxospiro[2.5]oct-5-ene-5-carbonitrile], a half-maximal response (EC50) required 138 nM.
`COC1(c2cccc(-c3cnc(C)nc3)n2)C=C(C#N)C(=O)C2(CC2)C1` (single isomer, unassigned) [Compound 50, 7-methoxy-7-(6-(2-methylpyrimidin-5-yl)pyridin-2-yl)-4-oxospiro[2.5]oct-5-ene-5-carbonitrile]: a half-maximal response (EC50) required 30 nM.
As for `COC1(c2cccc(-c3cncnc3)n2)C=C(C#N)C(=O)C2(CC2)C1` (single isomer, unassigned) [Compound 51, 7-methoxy-4-oxo-7-(6-(pyrimidin-5-yl)pyridin-2-yl)spiro[2.5]oct-5-ene-5-carbonitrile], the midpoint of the response, the EC50, lay at 48 nM.
The result for `COC1(c2cccc(-c3c(C)noc3C)n2)C=C(C#N)C(=O)C2(CC2)C1` (single isomer, unassigned) [Compound 52, 7-(6-(3,5-dimethylisoxazol-4-yl)pyridin-2-yl)-7-methoxy-4-oxospiro[2.5]oct-5-ene-5-carbonitrile] reads 74 nM; that for `COC1(c2cccc(-c3ccnn3C)n2)C=C(C#N)C(=O)C2(CC2)C1` (single isomer, unassigned) [Compound 53, 7-methoxy-7-(6-(1-methyl-1H-pyrazol-5-yl)pyridin-2-yl)-4-oxospiro[2.5]oct-5-ene-5-carbonitrile], 133 nM.
In turn, `COC1(c2cncc(C)n2)C=C(C#N)C(=O)C2(CC2)C1` (single isomer, unassigned) [Compound 54, 7-methoxy-7-(6-methylpyrazin-2-yl)-4-oxospiro[2.5]oct-5-ene-5-carbonitrile] came in with an EC50 of 363 nM.
In turn, `COC1(c2ccccn2)C=C(C#N)C(=O)C2(CC2)C1` (single isomer, unassigned) [Compound 56, 7-methoxy-4-oxo-7-(pyridin-2-yl)spiro[2.5]oct-5-ene-5-carbonitrile] returned a 50% effective concentration (EC50) of 179 nM.
`COC1(c2ncccc2C(F)(F)F)C=C(C#N)C(=O)C2(CC2)C1` (single isomer, unassigned) [Compound 57, 7-methoxy-4-oxo-7-[3-(trifluoromethyl)pyridin-2-yl]spiro[2.5]oct-5-ene-5-carbonitrile] displayed a concentration giving a half-maximal response (EC50) of 47 nM.
As to `COC1(c2nc(C)cs2)C=C(C#N)C(=O)C2(CC2)C1` (single isomer, unassigned) [Compound 59, 7-methoxy-4-7-(4-methyl-1,3-thiazol-2-yl)-4-oxospiro[2.5]oct-5-ene-5-carbonitrile], a half-maximal effect (EC50) was put at 261 nM.
